Values quoted from earlier work, collected in patent publication US20050180917A1, “Delivery of neutron capture elements for neutron capture therapy” (priority 2001, published 2005).

Tests used:
[1] = in vivo
[2] = review of prior art

Row | Absolute tumour concentration [1] | Compound | toxicity [2]
1 | 6.9 µg/g | sodium mercaptoundecahydrododecaborate [BSH] | low toxicity
2 | 16.5 µg/g | N[C@@H](Cc1ccc(B(O)O)cc1)C(=O)O [BPA, 4-dihydroxyborylphenylalanine] | low toxicity
